Columns and labels:
[1] = system: HIV mutant strain 2 (E92Q/E138T/G140S/Q148H); assay: Test Example 2: resistance evaluation test (HeLa-CD4 reporter), mutant strain 2; assay type: cell-based; conditions: FC=EC50 of mutant strain/EC50 of wild strain; HeLa-CD4 cells
Method in brief: (§1)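 HeLa-CD4 reporter cells were infected with wild-type or mutant HIV in the presence of serially diluted compound and cultured 3 days. Cell lysates were read by chemiluminescent reporter assay after about 1 h at room temperature. Fold change was calculated as mutant EC50 divided by wild-type EC50.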

[2] = biological target: T1, voltage-gated sodium channel (Nav 1.5 channel) (Homo sapiens, UniProt Q14524); assay: Test Example 14: Nav test (patch clamp, HEK cells); assay type: cell-based; conditions: HEK cells expressing Nav 1.5 channel, whole cell patch clamp
T1 construct: expressed in transfected cells; host or cells: HEK cells
Experimental: Using a fully automatic patch clamp system (QPatch: Sophion Bioscience A/S), by the whole cell patch clamp method, the cells were maintained at a membrane potential of −100 mV and the induced INa when a −10 mV depolarization stimulus was applied for 20 msec was recorded. […] From the INa obtained, using analysis software (QPatch: Sophion Bioscience A/S), the absolute value of the maximum peak current was measured, with reference to the current value at the maintained membrane potential.

HIV [3] = assay: microbe, parasite or virus in culture; assay type: cell-based; conditions: Human immunodeficiency virus 1, MT4, 96 h, read-out: EC50 (50% HIV inhibition concentration), MT-4 cells, HIV, cultured four days, MTT; compounds of formula (I) of (A)
Experimental: A serial dilution series of test samples was prepared in 96-well microplates (50 μL/well).
100 μL/well in each case were dispensed onto plates having test samples of 2.5×10^5/mL MT-4 cell suspension, and HIV virus solution was then dispensed thereto in the amount of 50 μL/well. Mixing was performed using a plate mixer and culturing was performed for four days in a CO2 incubator. MTT (3-(4,5-dimethylthiazol-2-yl)-2,5-diphenyltetrazolium bromide) liquid was dispensed into each well in the amount of 30 μL in each case. The reaction was conducted for 1 h in a CO2 incubator. 150 μL of supernatant were removed from each well, taking care not to aspirate any cells. 150 μL of cell solution were added, and thorough mixing was performed with a plate mixer until all the cells had been dissolved. The optical absorbance of the mixed plates was measured at two wavelengths: 560 nm/690 nm, with a microplate reader.

[4] = system: HIV mutant strain 1 (E138K/G140S/Q148H/N155H); assay: Test Example 2: resistance evaluation test (HeLa-CD4 reporter), mutant strain 1; assay type: cell-based; conditions: FC=EC50 of mutant strain/EC50 of wild strain; HeLa-CD4 cells
Method in brief: as §1

[5] = Test Example 8: metabolic stability test; assay type: in vitro ADME, human
Method in brief: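 Pooled human liver microsomes (0.5 mg protein/mL, Tris-HCl pH 7.4) incubated with compound and 1 mmol/L NADPH for 0 or 30 min at 37° C. After methanol/acetonitrile quench, remaining parent was quantified by LC/MS/MS or SPE/MS and expressed as % of the 0 min amount.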

HIV [6] = assay: Test Example 16: anti-HIV activity in the presence of human serum protein (MT-4 cells); assay type: cell-based; conditions: 100% extrapolation value, PS=4×(EC50 with 25% human serum protein/EC50 with no human serum protein)
Experimental: A stage dilution series of the test samples was created on a 96-well microplate (50 μL/well).
Aliquots of human serum protein solution (human serum protein concentration 50%) were dispensed in the amount of 100 μL/well to a 96-well microplate containing the test sample. This was then left to stand for 1 h at room temperature. Culture medium in the amount of 100 μL/well in each case was dispensed to a serum-free plate for control purposes. Aliquots of MT-4 cells in the amount of 3.0×10^5/well and HIV virus liquid in the amount of 3 μL/well were mixed for the necessary number of wells and reacted for 1 h at 37° C. After the reaction, the cell suspension was centrifuged and the supernatant discarded; aliquots of infected cells were distributed to culture medium in the amount of 50 μL/well and were dispensed in the amount of 50 μL/well in each case into the wells of a 96-well microplate containing test samples and human serum protein (human serum protein concentration: 25%). Mixing was performed using a plate mixer and culturing was performed for four days with a CO2 incubator. […] MTT(3-(4, 5-dimethylthiazol-2-yl)-2, 5-diphenyltetrazolium bromide) liquid in the amount of 30 μL was dispensed to each of the wells. The reaction was performed for 1 h in a CO2 incubator. 150 μL supernatant was removed to avoid aspirating cells from the wells. 150 μL of cell solution was added and thorough mixing was performed, using a plate mixer, until all the cells were dissolved. The optical absorbance on the mixed plate was measured at two wavelengths, namely, 560 nm/690 nm, using a microplate reader.
Next, the potency shift (PS) was calculated, using the following formula. The PS is the value of the human serum protein concentration, extrapolated to 100%.

HIV [7] = assay: Test Example 3: test for confirmation of combined use effect; assay type: cell-based; parameters: key to D value (dosewise additivity value): <-0.1 synergy, -0.1 to 0.1 additive, >0.1 antagonism
Text: The two compounds in respect of which the effect of combined use was desired to be examined were mixed in various ratios, and the anti-HIV activity (50% HIV inhibiting concentration) for each combination was found by the method of test example 1. […] A brief description of the method of calculating the D value is given below.
The D value that is found by evaluating the anti-HIV activity of respective combinations of M concentrations of compound X1 and N concentrations of compound X2 is calculated by the following mathematical expression 1.
The effect of combined use was evaluated in terms of the D value in accordance with the following criteria • −0.5 to −0.2: strong synergetic effect • −0.2 to −0.1: weak synergetic effect • […]: additive synergetic effect • 0.1 to 0.2: weak antagonism • 0.2 to 0.5: strong antagonism

[8] = pooled human liver microsomes, 30 min at 37° C., NADPH, compound concentration 0.5 μmol/L
[9] = combination with compound (B) Compound C (CAI)
[10] = combination with compound (B) Darunavin (PI)
[11] = combination with compound (B) Darunavir (PI)
[12] = combination with compound (B) GS-6207 (CAI)
[13] = combination with compound (B) GSK2838232 (maturation inhibitor)
[14] = combination with compound (B) Lilpiperine (polymerase inhibitor)
[15] = combination with compound (B) Ramipzin (3TC) (polymerase inhibitor)
[16] = combination with compound (B) Rilpivirine (polymerase inhibitor)

T1 sequence (Q14524 whole entry): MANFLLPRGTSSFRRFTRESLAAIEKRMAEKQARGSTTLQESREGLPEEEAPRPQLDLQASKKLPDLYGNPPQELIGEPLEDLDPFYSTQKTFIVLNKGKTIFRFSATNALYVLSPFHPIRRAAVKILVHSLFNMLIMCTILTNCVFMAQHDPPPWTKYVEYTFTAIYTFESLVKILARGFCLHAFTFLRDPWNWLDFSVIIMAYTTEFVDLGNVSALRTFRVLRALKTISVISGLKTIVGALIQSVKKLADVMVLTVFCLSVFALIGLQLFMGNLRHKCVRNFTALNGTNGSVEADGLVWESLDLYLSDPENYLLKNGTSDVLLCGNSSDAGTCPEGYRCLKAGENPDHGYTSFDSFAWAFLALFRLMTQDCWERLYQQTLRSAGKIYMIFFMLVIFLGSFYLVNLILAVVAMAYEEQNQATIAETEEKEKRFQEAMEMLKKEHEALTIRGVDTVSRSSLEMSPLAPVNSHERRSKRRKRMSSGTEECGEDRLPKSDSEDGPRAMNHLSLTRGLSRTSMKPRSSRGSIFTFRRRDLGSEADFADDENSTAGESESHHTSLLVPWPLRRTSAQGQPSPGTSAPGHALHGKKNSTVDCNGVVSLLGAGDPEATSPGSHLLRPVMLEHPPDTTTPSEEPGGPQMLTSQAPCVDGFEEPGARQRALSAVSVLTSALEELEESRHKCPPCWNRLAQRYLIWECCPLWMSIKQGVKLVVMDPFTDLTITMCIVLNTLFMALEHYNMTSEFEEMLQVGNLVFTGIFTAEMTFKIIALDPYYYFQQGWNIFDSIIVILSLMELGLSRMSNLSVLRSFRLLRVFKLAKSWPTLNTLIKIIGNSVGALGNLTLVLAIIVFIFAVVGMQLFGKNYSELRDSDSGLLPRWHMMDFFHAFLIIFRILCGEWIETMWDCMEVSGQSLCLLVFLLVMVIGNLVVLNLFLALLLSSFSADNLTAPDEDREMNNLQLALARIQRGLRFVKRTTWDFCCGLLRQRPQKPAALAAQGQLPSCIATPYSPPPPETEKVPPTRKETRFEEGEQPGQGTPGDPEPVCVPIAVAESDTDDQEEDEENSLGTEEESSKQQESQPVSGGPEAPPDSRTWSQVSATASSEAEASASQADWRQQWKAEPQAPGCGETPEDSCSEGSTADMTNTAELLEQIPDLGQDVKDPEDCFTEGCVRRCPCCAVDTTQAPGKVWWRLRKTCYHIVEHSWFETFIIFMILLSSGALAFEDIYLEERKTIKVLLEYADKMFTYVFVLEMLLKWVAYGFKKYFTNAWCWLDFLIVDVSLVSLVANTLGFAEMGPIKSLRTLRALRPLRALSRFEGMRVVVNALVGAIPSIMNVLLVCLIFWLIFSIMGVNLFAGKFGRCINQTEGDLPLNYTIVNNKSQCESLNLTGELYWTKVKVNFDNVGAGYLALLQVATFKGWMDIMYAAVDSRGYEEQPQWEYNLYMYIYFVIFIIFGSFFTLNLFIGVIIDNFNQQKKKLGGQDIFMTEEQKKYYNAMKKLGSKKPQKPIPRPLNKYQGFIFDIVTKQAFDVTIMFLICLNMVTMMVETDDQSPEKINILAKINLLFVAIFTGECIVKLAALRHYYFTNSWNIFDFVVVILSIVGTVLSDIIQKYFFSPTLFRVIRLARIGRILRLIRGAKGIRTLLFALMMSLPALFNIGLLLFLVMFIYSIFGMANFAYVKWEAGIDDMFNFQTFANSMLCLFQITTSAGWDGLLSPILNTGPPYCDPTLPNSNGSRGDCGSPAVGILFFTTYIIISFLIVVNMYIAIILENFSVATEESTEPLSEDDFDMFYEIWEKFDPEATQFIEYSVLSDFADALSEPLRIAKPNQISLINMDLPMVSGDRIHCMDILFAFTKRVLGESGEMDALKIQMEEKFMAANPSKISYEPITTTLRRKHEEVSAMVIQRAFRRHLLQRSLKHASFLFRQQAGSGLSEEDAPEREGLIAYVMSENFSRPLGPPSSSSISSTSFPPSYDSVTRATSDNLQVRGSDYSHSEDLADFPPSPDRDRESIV

Row | Compound | FC in respect of mutant strain 2 (E92Q/E138T/G140S/Q148H) [1] | ratio of maximum peak current (INa) on application of compound to that on application of medium [2] [%] | EC50 (HIV [3]) [nM] | FC in respect of mutant strain 1 (E138K/G140S/Q148H/N155H) [4] | Remaining percentage [5, 8] [%] | also measured
1 | CCN1C(=O)c2c(O)c(=O)c(-c3nnc(Cc4cc(F)c(F)cc4F)s3)cn2N2CCCC[C@@H]12 [Compound I-022] | 46 | 97.1 | 4.8 | 23 | 72.2 | –
2 | CCN1C(=O)c2c(O)c(=O)c(C(=O)NCc3ccc(F)cc3F)cn2N2C[C@@H](C)C[C@@H]12 [II-045] | 21 | – | – | 19 | 96 | potency shift (PS) in the presence of human serum protein (HIV [6]): 236
3 | CCN1C(=O)c2c(O)c(=O)c(C(=O)NCc3cccc(Cl)c3F)cn2N2[C@H]3COCC3C[C@@H]12 (some centres unmarked) [II-052] | 16 | – | 0.27 | 22 | – | D value (dosewise additivity value) (HIV [7]; [9]): 0.038; effect of combined use (HIV [7]; [9]): Additive (−0.1 to −0.1: additive synergetic effect); D value (dosewise additivity value) (HIV [7]; [10]): −0.076; effect of combined use (HIV [7]; [11]): Additive (−0.1 to −0.1: additive synergetic effect); D value (dosewise additivity value) (HIV [7]; [12]): −0.003; effect of combined use (HIV [7]; [12]): Additive (−0.1 to −0.1: additive synergetic effect); D value (dosewise additivity value) (HIV [7]; [13]): −0.009; effect of combined use (HIV [7]; [13]): Additive (−0.1 to −0.1: additive synergetic effect); effect of combined use (HIV [7]; [14]): Additive (−0.1 to −0.1: additive synergetic effect); D value (dosewise additivity value) (HIV [7]; [15]): −0.156; effect of combined use (HIV [7]; [15]): Weak synergy (−0.2 to −0.1: weak synergetic effect); D value (dosewise additivity value) (HIV [7]; [16]): −0.020; Remaining percentage ([5]; human, microsomes, 0.5 h, 0.5 μmol/L, pH 7.4): 61.6%
4 | CN1C(=O)c2c(O)c(=O)c(-c3nnc(Cc4ccc(F)cc4F)s3)cn2N2CCCC[C@@H]12 [II-098] | 12 | 96.7 | 0.62 | 8.8 | 109 | –
5 | CCN1C(=O)c2c(O)c(=O)c(-c3nnc(Cc4c(F)cc(F)cc4F)s3)cn2N2CCOC[C@@H]12 [II-106] | 20 | 109 | 0.52 | 15 | 95.3 | –
6 | CCN1C(=O)c2c(O)c(=O)c(-c3nnc(Cc4ccc(F)cc4F)s3)cn2N2[C@H](COC)CC[C@@H]12 [II-110] | 11 | 89.3 | 0.13 | 8.2 | 96.5 | D value (dosewise additivity value) (HIV [7]; [9]): 0.075; effect of combined use (HIV [7]; [9]): Additive (−0.1 to −0.1: additive synergetic effect); D value (dosewise additivity value) (HIV [7]; [10]): −0.058; effect of combined use (HIV [7]; [11]): Additive (−0.1 to −0.1: additive synergetic effect); D value (dosewise additivity value) (HIV [7]; [12]): 0.025; effect of combined use (HIV [7]; [12]): Additive (−0.1 to −0.1: additive synergetic effect); D value (dosewise additivity value) (HIV [7]; [13]): −0.048; effect of combined use (HIV [7]; [13]): Additive (−0.1 to −0.1: additive synergetic effect); effect of combined use (HIV [7]; [14]): Additive (−0.1 to −0.1: additive synergetic effect); D value (dosewise additivity value) (HIV [7]; [15]): −0.145; effect of combined use (HIV [7]; [15]): Weak synergy (−0.2 to −0.1: weak synergetic effect); D value (dosewise additivity value) (HIV [7]; [16]): −0.073
7 | CCN1C(=O)c2c(O)c(=O)c(-c3nnc(Cc4c(F)cc(F)cc4F)s3)cn2N2[C@H](COC)CC[C@@H]12 [II-117] | 11 | 88.8 | 0.62 | 10 | 93.4 | –
8 | CCN1C(=O)c2c(O)c(=O)c(-c3nnc(Cc4ccc(F)cc4)s3)cn2N2[C@H](COC)CC[C@@H]12 [II-118] | 31 | 86.2 | 0.96 | 20 | 92.4 | –
9 | C[C@H]1CC[C@H]2N(C)C(=O)c3c(O)c(=O)c(-c4nnc(Cc5ccc(F)cc5F)s4)cn3N2C1 [II-120] | 8 | 78.8 | 0.25 | 5.8 | 95.5 | –
10 | COC[C@@H]1CC[C@H]2N(C)C(=O)c3c(O)c(=O)c(-c4nnc(Cc5c(F)cc(F)cc5F)s4)cn3N12 [II-151] | 17 | – | 0.37 | 27 | 94.6 | –
11 | CCN1C(=O)c2c(O)c(=O)c(-c3nnc(Cc4ccc(F)cc4F)s3)cn2N2C[C@@H](C)CC[C@@H]12 [II-155] | 5.1 | – | 0.3 | 5.2 | 93 | –
12 | CCN1C(=O)c2c(O)c(=O)c(-c3nnc(Cc4c(F)cc(F)cc4F)s3)cn2N2C[C@@H](C)CC[C@@H]12 [II-156] | 4.6 | – | 1.2 | 3.5 | 91.3 | –
13 | COC[C@@H]1CC[C@H]2N(C)C(=O)c3c(O)c(=O)c(C(=O)NCc4c(F)cc(F)cc4F)cn3N12 [II-157] | 24 | – | 0.7 | 53 | 90 | –

— patent US12564595B2, “Prophylactic and therapeutic pharmaceutical agent for HIV infectious diseases characterized by comprising combination of integrase inhibitor and anti-HIV agent” (Shionogi & Co., Ltd., priority 2019, dated 2026)
